Assay [1] has as its system delayed rectifier K+ currents (IK(DR)) in GH3 cells. The experiment in a line: Whole-cell patch-clamp of delayed rectifier K+ current (1-sec step depolarization). It is filed as cell-based, rat. How it is done:
We next examined whether the presence of SSM is able to modify IK(DR) present in GH3 cells. To achieve this goal, we bathed cells in Ca^2+-free Tyrode’s solution which contained 1 μM TTX, and then filled up the recording electrode by using K^+-containing solution. When cells were exposed to SSM at a concentration of 3 μM, the amplitude of IK(DR) in response to a 1-sec step depolarization was unchanged. It is noted, however, that the IK(DR) amplitudes responding to different levels of depolarizing command steps were decreased by the addition of 10 μM SSM, though the activation time course of IK(DR) evoked by membrane depolarization remained unchanged.
(§1) The bath solution (i.e., a HEPES-buffered normal Tyrode’s solution) utilized in the present study was composed of 136 mM NaCl, 5.4 mM KCl, 1.8 mM CaCl2, 0.53 mM MgCl2, 5.5 mM glucose, and 5.5 mM HEPES titrated with NaOH to pH 7.4. To measure macroscopic IK(DR) and Ih, we filled patch pipettes by using a solution containing 130 mM K-aspartate, 20 mM KCl, 1 mM KH2PO4, 1 mM MgCl2, 3 mM Na2ATP, 0.1 mM Na2GTP, 0.1 mM EGTA, and 5 mM HEPES adjusted with KOH to pH 7.2. To record INa and INa(R), we substituted K^+ ions in the pipette solution inside the electrode for equmolar Cs^+ ions and the pH value in the solution was adjusted to 7.2 with CsOH. […]
(§2) On the day of each experiment, cells were dispersed with a 1% trypsin/EDTA solution and a few drops of cell suspension were rapidly placed in a custom-built recording chamber mounted on the stage of an inverted DM-IL microscope (Leica; Major Instruments, Kaohsiung, Taiwan). […] We measured ion currents in the whole-cell model of a standard patch-clamp technique with dynamic adaptive suctioning (i.e., decremental change of suction pressure in response to a progressive increase in the electrode resistance), with the aid of an RK-400 (Bio-Logic, Claix, France) or an Axopatch-200B (Molecular Devices, Sunnyvale, CA) patch amplifier. […] During the measurements, the recorded area on the vibration-free table was shielded by using a Faraday cage (Scitech, Seoul, South Korea). […]
In general terms: Patch clamp records ionic current or voltage across a cell membrane.

Assay [2] relates to hyperpolarization-activated cation currents (Ih) in GH3 cells. The experiment in a line: Whole-cell patch-clamp of hyperpolarization-activated cation current (−40 to −110 mV). It is filed as cell-based, rat. The note with it: 10 μM; at −110 mV; control 388 ± 24 pA; n = 9. As to the method:
In the following experiments, we further studied whether the presence of SSM could perturb another type of inwardly directed current, i.e., Ih. Cells were exposed to Ca^2+-free Tyrode’s solution containing 1 μM TTX and the pipette was filled with K^+-containing solution. As the hyperpolarizing command pulse from −40 to −110 mV with a duration of 2 sec was delivered, Ih with a slowly activating property was robustly evoked, as observed previously. […] Cilobradine has recently been reported to decrease Ih amplitude, as well as to alter activation kinetics present in different types of excitable cells.
as §1, §2

As for `c1cc2c(cc1[C@H]1OC[C@H]3[C@@H]1CO[C@@H]3c1ccc3c(c1)OCO3)OCO2` [SSM, [1S-(1α,3aα,4α,6aα)] -5,5’- (tetrahydro-1H,3H-furo [3–4-c]furan-1,4-diyl)bis-1,3-benzodioxole], the “Effect on amplitude of IK(DR)” value in assay [1] (3 μM, 1-sec step depolarization) was “unchanged”. Besides, the “IK(DR) amplitude” value in assay [1] (10 μM, at +40 mV, control 598 ± 34 pA, n = 8) turned out to be 454 ± 29 pA. In addition, the “Decrease of IK(DR) amplitude” value in assay [1] (10 μM, at +40 mV, n = 8) is 23 ± 4%. In addition, the “Ih amplitude at end of hyperpolarizing step” value in assay [2] came to 386 ± 26 pA.
